Test results from patent US5302602A, “Tricyclic thromboxane A2 antagonists” (Kyowa Hakko Kogyo Co., Ltd., priority 1987, dated 1994).
Read-outs that look alike come from different tables or passages of the source.

Key:
[1] = system: guinea pig platelets (TXA2/prostaglandin H2 receptor); assay: Test on anti-platelet activity (TXA2 antagonizing test): inhibition of U-46619-induced platelet aggregation; format: cell-based; conditions: Cavia porcellus, 0.05 h; minimum concentration inhibiting U-46619 (0.5-1 μM)-induced platelet aggregation by 30% or more; guinea pig PRP; read-out: TXA2 Antagonizing Activity (MEC), minimum effective concentration
Experimental: Using guinea pig platelets influence of the compounds in accordance with the present invention on platelet aggregation induced by U-46619 (9,11-dideoxy-9α,11a-methanoepoxyprostaglandin F2 α; manufactured by Cayman Chemica Co., Ltd.) which is a TXA2 /prostaglandin H2 receptor stimulant was examined.
Male guinea pig (Hartley strain; body weight, 300 to 600 g) was anesthesized by intraperitoneal administration of sodium pentobarbital (30 mg/kg) and blood was collected from the descending aorta of the abdomen with a 1/10 volume of sodium citrate. By centrifugation (KC-70: manufactured by Kubota Co., Ltd.) at 800 rpm for 10 minutes, platelet rich plasma (PRP) was collected. Platelet aggregation induced by U-46619 (0.5-1 μM) was determined by photometry [Born, G.V.R. et al., Nature (London), 194, 927-929 (1962)]. A test compound was pretreated 3 minutes prior to aggregation induction and ability of inhibiting aggregation was measured. The minimum concentration for inhibiting platelet aggregation by 30% or more was defined as the minimum effective concentration (MEC) of the test compound.

[2] = system: homologous passive cutaneous anaphylaxis (PCA); assay: Antiallergic activity test: homologous passive cutaneous anaphylaxis (PCA) test for 48 hours using rats; format: in vivo, rat (Wistar strain, male); conditions: Rattus norvegicus, po, minimum dose with at least one of 3 rats showing PCA inhibition rate 50% or more, read-out: Antiallergic Activity (MED), minimum effective dose
Experimental: Antiallergic activity was examined in accordance with the passive cutaneous anaphylaxis (PCA) test using rats. As test animals, Wistar strain male rats weighing 180 to 220 g were used to collect antiserum and for the PCA test, Wistar strain male rats weighing 120 to 140 g were used.
Anti-EWA rat serum was prepared according to the method of Stotland and Share [Can. J. Physiol. Pharmacol., 52, 1114 (1974)]. That is, 1 mg of EWA was mixed with 20 mg of aluminum hydroxide gel and 0.5 ml of pertussis-diphtberia-tetanus mixed vaccine. The mixture was subcutaneously administered to the rat paw in 4 portions. Fourteen days after, blood was collected from the carotid artery and the serum was isolated and stored in a state frozen at -80° C. Titer of this antiserum to homologous PCA for 48 hours was 1:32.
Three rats were used per group. After the hair at the back was cut, 0.05 ml each of anti-EWA rat serum diluted to 8-fold with physiological saline was intracutaneously injected to each rat at the back in 2 places to passively sensitize the rat. A test compound or its solution (physiological saline solution or CMC solution) was orally administered 47 hours after and 0.5 ml/100 g of 1% Evans Blue physiological saline containing 2 mg of antigen EWA was then intravenously administered to the tail vein an hour after the administration. Thirty minutes later, the animal was bled to death. The skin was peeled off and a leaked dye amount at the blue dyed portion was measured according to the method of Katayama et al. [Microbiol. Immunol., 22, 89 (1978)]. That is, the blue dyed portion was cut off with scissors, put into a test tube charged with 1 ml of 1 N potassium hydroxide and incubated at 37° C. for 24 hours. After 9 ml of a mixture of 0.6 N phosphate:acetone (5:13) was added to the system, the mixture was shaken followed by centrifugation at 2500 rpm for 10 minutes. The absorbancy of the supernatant at 620 nm was measured and the leaked dye amount was quantitatively determined by comparison with a calibration curve previously prepared. A value of one rat was obtained from a mean value of the two portions and an inhibition rate-of each rat was calculated according to the following equation. [formula]
The case showing that the inhibition rate is 50% or more is judged to be positive in the PCA inhibition activity and the minimum dose in which at least one out of 3 rats was recognized to be positive was defined as the minimum effective dose (MED) of the test compound.

mice = assay: Acute toxicity test; format: in vivo; conditions: mortality observed for seven days
Experimental: Using three dd strain male mice weighing 20±1 g, a test compound was orally (po; 300 mg/kg) or intraperitoneally (ip; 100 mg/kg) administered. MLD (the minimum lethal dose) was determined by observing the mortality for seven days after administration.

histamine H1 receptor = target: T1, histamine H1 receptor (Cavia porcellus, UniProt P31389); assay: Binding study using 3H-pyrilamine (histamine H1 receptor binding); design: species or system guinea pig; conditions: read-out: (%) Inhibition (3H-pyrilamine binding)
T1 construct: from tissue; host or cells: guinea pig cerebellum membranes
Experimental: Receptor binding was determined by the method of chang et al. [J. Neurochem., 32, 1953 (1979)].
The cerebellum of guinea pig was suspended in a 40-fold amount (V/W) of chilled 50 mM phosphate buffer (pH 7.5) with Polytron Homogenizer (Kinematica Co., Ltd.). The suspension was centrifuged (35,500×g, 10 minutes). The resulting precipitates were resuspended in an equal amount of fresh buffer followed by centrifugation. A 100-fold amount (V/W) of chilled buffer was added to the final precipitates.
To 1 ml of the membrane suspension adjusted as described above were added 50 μl of tritium-labeled pyrilamine (^3 H-pyrilamine; NEN Co., Ltd.) and 50 μl of a test compound. The mixture was allowed to stand at 25° C. for 30 minutes, 4 ml of chilled buffer was added thereto. The mixture was rapidly filtered through a glass fiber filter (GF/C; Whatman). The filter paper was further washed three times with 5 ml of buffer. Hereafter procedures were performed in a manner similar to the TXA2 receptor binding test to determine radioactivity.
An inhibitory activity of the test compound against H1 receptor was calculated by the following equation. [formula]
Amount of the total binding is an amount of ^3 H-pyrilamine-bound radioactivity in the absence of a test compound.
The amount of non-specific binding is an amount of ^3 H-pyrilamine-bound radioactivity in the presence of 3 μM Astemizole (manufactured by Janesen Pharmaceutics).
The amount bound in the presence of a test compound is an amount of ^3 H-pyrilamine-bound radioactivity in the presence of a test compound in various concentrations.

TXA2 receptor = target: T2, TXA2 receptor (Cavia porcellus, UniProt A0A286Y4I8); assay: Binding study using 3H-U46619 (TXA2 receptor binding activities test); design: species or system guinea pig; conditions: for inhibition at 1 µM: 20 min, read-out: % Inhibition (3H-U46619 binding); for inhibitory activity (TXA2 receptor binding), in words: statement in words on Table 4
T2 construct: To a washed platelet suspension (1×10^8 platelets) of guinea pig; endogenous in cells; host or cells: washed guinea pig platelets
T2 sequence (A0A286Y4I8 1-347): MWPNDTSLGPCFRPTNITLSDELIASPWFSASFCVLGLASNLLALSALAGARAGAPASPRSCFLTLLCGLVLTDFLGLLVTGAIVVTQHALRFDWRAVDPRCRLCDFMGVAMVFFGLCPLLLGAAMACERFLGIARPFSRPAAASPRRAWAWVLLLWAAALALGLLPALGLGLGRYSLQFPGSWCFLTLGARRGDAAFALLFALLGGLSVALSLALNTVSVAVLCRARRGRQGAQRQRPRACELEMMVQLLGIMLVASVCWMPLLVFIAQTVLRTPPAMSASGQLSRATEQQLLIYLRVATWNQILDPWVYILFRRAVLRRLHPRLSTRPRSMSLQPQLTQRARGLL
Experimental: Receptor binding was determined by a modified method of Kattelman et al. (Thrombosis Research, 41, 471 (1986)].
To a washed platelet suspension (1×10^8 platelets) of guinea pig were added 12 nM of tritium-labeled U46619 (^3 H-U46619; NEN Co., Ltd.) and a test compound (final concentration: 1 μM) solution. After keeping at 37° C. for 20 minutes, the mixture was rapidly filtered through a glass fiber filter paper (GF/C; Whatman). Immediately, the filter paper was washed 5 times with 3 ml of ice-cold 50 mM Tris-hydroxymethylaminomethane buffer (containing 100 mM sodium chloride). The glass fiber filter was transferred to a vial and a scintillator (Ex-H; manufactured by Wako Pure Chemical Industries Co., Ltd.) was added thereto. The radioactivity was determined with a liquid scintillation counter.
It is already known that ^3 H-U46619 is capable of binding with TXA2 receptor (see the publication supra). An inhibitory activity of the test compound against this binding means an ability of binding with the TXA2 receptor. It is also known that a good relationship exists between this binding activity and the anti-platelet activity (TXA2 antagonizing test).
An inhibitory activity (binding activity) of the test compound was calculated by the following equation. [formula]
Amount of the total binding is an amount of ^3 H-U46619-bound radioactivity in the absence of a test compound.
The amount of non-specific binding is used to mean an amount of ^3 H-U46619-bound radioactivity in the presence of 10 μM U-46619.
The amount bound in the presence of a test compound is an amount of ^3 H-U46619-bound radioactivity in the presence of a test compound in various concentrations.

[3] = test compound 1 μM, 12 nM 3H-U46619, washed guinea pig platelets, 37° C., 20 minutes

T1 sequence (P31389 whole entry): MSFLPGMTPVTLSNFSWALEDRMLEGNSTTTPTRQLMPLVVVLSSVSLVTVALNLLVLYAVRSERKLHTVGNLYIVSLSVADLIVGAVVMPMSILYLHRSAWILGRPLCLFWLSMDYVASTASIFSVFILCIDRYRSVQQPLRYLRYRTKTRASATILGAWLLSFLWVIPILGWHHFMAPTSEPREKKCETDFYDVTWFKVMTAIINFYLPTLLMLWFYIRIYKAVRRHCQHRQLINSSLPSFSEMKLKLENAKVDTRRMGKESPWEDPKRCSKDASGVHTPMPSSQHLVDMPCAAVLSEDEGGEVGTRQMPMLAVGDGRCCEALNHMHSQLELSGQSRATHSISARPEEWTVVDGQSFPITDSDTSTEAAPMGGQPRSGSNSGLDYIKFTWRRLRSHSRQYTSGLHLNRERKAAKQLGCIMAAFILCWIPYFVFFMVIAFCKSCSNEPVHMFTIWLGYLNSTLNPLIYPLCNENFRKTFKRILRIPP

SMILES	minimal effective concentration [1]	minimal effective dose [2]	Acute Toxicity (MLD), minimum lethal dose (mice; ip)	Acute Toxicity (MLD), minimum lethal dose (mice; po)	inhibition at 1 µM (histamine H1 receptor)	inhibition at 1 µM (TXA2 receptor; [3])	inhibitory activity (TXA2 receptor binding), in words (TXA2 receptor)	inhibition at 1 µM (TXA2 receptor)
O=C(O)c1ccc2c(c1)C(SCCN1CCN(c3ccccc3)CC1)c1ccccc1CO2 (stereo not drawn) [Compound 1b, 11-[2-(4-Phenyl-1-piperazinyl)ethyl]thio-6,11-dihydrodibenz[b,e]oxepin-2-carboxylic acid]	3 µg/mL	10 mg/kg	> 100 mg/kg	> 300 mg/kg	68%			
O=C(O)c1ccc2c(c1)C(SCCN1CCN(c3ccc(F)cc3)CC1)c1ccccc1CO2 (stereo not drawn) [Compound 8b]	1 µg/mL	10 mg/kg	> 100 mg/kg	> 300 mg/kg				
COc1ccccc1N1CCN(CCSC2c3ccccc3COc3ccc(C(=O)O)cc32)CC1 (stereo not drawn) [Compound 9b]	1 µg/mL	10 mg/kg	> 100 mg/kg	> 300 mg/kg				
O=C(O)c1ccc2c(c1)C(SCCN1CCC(c3ccccc3)CC1)c1ccccc1CO2 (stereo not drawn) [Compound 37b, 11-[2-(4-Phenyl-1-piperidinyl)ethyl]thio-6,11-dihydrodibenz[b,e]oxepin-2-carboxylic acid]	10 µg/mL	1 mg/kg	> 100 mg/kg	> 300 mg/kg				
O=C(O)c1ccc2c(c1)C(SCCN1CCC(Cc3ccccc3)CC1)c1ccccc1CO2 (stereo not drawn) [Compound 38b]	1 µg/mL	1 mg/kg			92%	81%		
CN(C)CCSC1c2ccccc2COc2ccc(C(=O)O)cc21 (stereo not drawn) [Compound (A), reference compound]					88%	-4%	not observed	
CN(C)CCC=C1c2ccccc2COc2ccc(CC(=O)O)cc21 [Compound (B), reference compound]						1%	not observed	
O=C(O)c1ccc2c(c1)/C(=C/CN1CCN(c3ccc(F)cc3)CC1)c1ccccc1CO2 [Compound E-73b, (E)-11-[2-[4-(4-Fluorophenyl)-1-piperazinyl]ethylidene]-6,11-dihydrodibenz[b,e]oxepin-2-carboxylic acid.isopropanol. monohydrate]	10 µg/mL	> 100 mg/kg	> 100 mg/kg	> 300 mg/kg		85%		
O=C(O)c1ccc2c(c1)/C(=C/CN1CCN(S(=O)(=O)C=Cc3ccccc3)CC1)c1ccccc1CO2 [Compound E-78b, (E)-11-[2-[4-(Styrylsulfonyl)-1-piperazinyl]ethylidene]-6,11-dihydrodibenz[b,e]oxepin-2-carboxylic acid-0.1 iso-propanol.0.1 hydrate]	3 µg/mL	> 100 mg/kg	> 100 mg/kg	> 300 mg/kg		83%		
O=C(O)c1ccc2c(c1)/C(=C/CN1CCN(S(=O)(=O)c3cccs3)CC1)c1ccccc1CO2 [Compound E-79b, (E)-11-[2-[4-(2-Thienylsulfonyl)-1-piperazinyl]ethylidene]-6,11-dihydrodibenz[b,e]oxepin-2-carboxylic acid.0.5 hydrate]	30 µg/mL	> 100 mg/kg	> 100 mg/kg	> 300 mg/kg		77%		
O=C(O)c1ccc2c(c1)/C(=C/CN1CCN(CC=Cc3ccccc3)CC1)c1ccccc1CO2 [E-75b', (E)-11-[3-(4-Cinnamyl-1-piperazinyl)ethylidene]-6,11-dihydrodibenz[b,e]oxepin-2-carboxylic acid.difumarate-0.5 hydrate]	0.1 µg/mL	100 mg/kg	> 100 mg/kg	> 300 mg/kg		85%		
CN1CCC(=C2c3ccccc3CC(=O)c3sccc32)CC1 [Ketotifen, reference compound]							not observed	-3%
